Source: ChEMBL document CHEMBL4145688, “Potent and Orally Bioavailable Inverse Agonists of RORγt Resulting from Structure-Based Design” (J Med Chem, 2018)
Values after ≈ are worked out from the molar mass of the structure shown.

Legend:
[1] = target: T1, Nuclear receptor ROR-gamma (Homo sapiens, UniProt P51449)
T1 sequence (P51449 whole entry): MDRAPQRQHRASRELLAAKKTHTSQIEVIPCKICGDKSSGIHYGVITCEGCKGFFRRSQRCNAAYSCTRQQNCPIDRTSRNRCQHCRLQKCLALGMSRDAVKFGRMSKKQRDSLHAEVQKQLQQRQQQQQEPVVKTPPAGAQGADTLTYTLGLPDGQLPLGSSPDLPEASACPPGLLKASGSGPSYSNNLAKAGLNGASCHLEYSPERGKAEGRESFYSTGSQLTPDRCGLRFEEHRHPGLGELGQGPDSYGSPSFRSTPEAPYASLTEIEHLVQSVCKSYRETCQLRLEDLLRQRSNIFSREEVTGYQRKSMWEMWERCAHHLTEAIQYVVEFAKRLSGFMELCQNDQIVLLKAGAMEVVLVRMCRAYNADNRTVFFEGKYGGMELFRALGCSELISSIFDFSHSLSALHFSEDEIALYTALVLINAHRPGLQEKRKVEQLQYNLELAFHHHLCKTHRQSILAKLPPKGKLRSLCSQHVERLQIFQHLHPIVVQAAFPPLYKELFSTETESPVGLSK

[2] = target: T1, Nuclear receptor ROR-gamma; assay: Inverse agonist activity at RORgammat in human TH17 cells assessed as inhibition of IL17 release incubated for 4 days by HTRF assay; type: cell-based
[3] = Distribution coefficient between 1-octanol and aqueous phosphate buffer, logD of the compound in pH 7.4 buffer; type: physicochemical; conditions: 1-octanol/aqueous phosphate buffer
[4] = target: T1, Nuclear receptor ROR-gamma; remark: listed apart in the source
Description: Displacement of [3H]-2-(4-(ethylsulfonyl)phenyl)-N-(4-(2-(methoxymethyl)phenyl)thiophen-2-yl)acetamide from purified N-(HN)6-GST-TCS-human RORgammat (258 to 518 residues) incubated for 16 hrs by scintillation proximity assay

[5] = Permeability from apical to basolateral side in human Caco2 cells; type: ADME, cell-based; conditions: for Papp A→B: Caco-2, read-out: permeability
[6] = Unbound fraction in human plasma by equilibrium dialysis; type: ADME, cell-free
[7] = Permeability in human Caco2 cells assessed as drug recovery; type: ADME, cell-based; conditions: Caco-2, read-out: Drug recovery
[8] = Efflux ratio of permeability in human Caco2 cells; type: ADME, cell-based; conditions: Caco-2
physchem = conditions: aqueous buffer, pH 7.4
Description: Solubility in aqueous buffer at pH 7.4

[9] = Permeability from basolateral to apical side in human Caco2 cells; type: ADME, cell-based; conditions: for Papp B→A: Caco-2, read-out: permeability
[10] = Cytotoxicity in human Th17 cells assessed as effect on cell viability by cell-titer-Glo luminescent cell viability assay relative to control; type: cell-based; conditions: read-out: Efficacy
[11] = Intrinsic clearance in rat hepatocytes assessed per million cells; type: ADME, cell-based, Hepatocyte; conditions: read-out: CLH
[12] = Oral bioavailability in Han Wistar rat at 1 mg/kg; type: ADME, organism-based; conditions: in vivo
hERG (KCNH2) = hERG (KCNH2) (Homo sapiens, UniProt Q12809); assay: Inhibition of human ERG at 11 uM
[13] = Intrinsic clearance in human hepatocytes assessed per million cells; type: ADME, cell-based, Hepatocyte; conditions: read-out: CLH
[14] = Clearance in Han Wistar rat at 0.5 mg/kg, iv or 1 mg/kg, po; type: ADME, organism-based; conditions: in vivo
[15] = Selectivity index, ratio of cytotoxicity in human Th17 cells to IC50 for inverse agonist activity at RORgammat in human TH17 cells assessed as inhibition of IL17 release; type: toxicity, cell-based
[16] = Volume of distribution at steady state in Han Wistar rat at 0.5 mg/kg, iv or 1 mg/kg, po; type: ADME, organism-based; conditions: in vivo, read-out: Vdss
[17] = Oral absorption in Han Wistar rat at 1 mg/kg; type: ADME, organism-based; conditions: in vivo, read-out: Fabs
[18] = Half life in Han Wistar rat at 0.5 mg/kg, iv or 1 mg/kg, po; type: ADME, organism-based; conditions: in vivo

Sequence of hERG (KCNH2) (Q12809 whole entry): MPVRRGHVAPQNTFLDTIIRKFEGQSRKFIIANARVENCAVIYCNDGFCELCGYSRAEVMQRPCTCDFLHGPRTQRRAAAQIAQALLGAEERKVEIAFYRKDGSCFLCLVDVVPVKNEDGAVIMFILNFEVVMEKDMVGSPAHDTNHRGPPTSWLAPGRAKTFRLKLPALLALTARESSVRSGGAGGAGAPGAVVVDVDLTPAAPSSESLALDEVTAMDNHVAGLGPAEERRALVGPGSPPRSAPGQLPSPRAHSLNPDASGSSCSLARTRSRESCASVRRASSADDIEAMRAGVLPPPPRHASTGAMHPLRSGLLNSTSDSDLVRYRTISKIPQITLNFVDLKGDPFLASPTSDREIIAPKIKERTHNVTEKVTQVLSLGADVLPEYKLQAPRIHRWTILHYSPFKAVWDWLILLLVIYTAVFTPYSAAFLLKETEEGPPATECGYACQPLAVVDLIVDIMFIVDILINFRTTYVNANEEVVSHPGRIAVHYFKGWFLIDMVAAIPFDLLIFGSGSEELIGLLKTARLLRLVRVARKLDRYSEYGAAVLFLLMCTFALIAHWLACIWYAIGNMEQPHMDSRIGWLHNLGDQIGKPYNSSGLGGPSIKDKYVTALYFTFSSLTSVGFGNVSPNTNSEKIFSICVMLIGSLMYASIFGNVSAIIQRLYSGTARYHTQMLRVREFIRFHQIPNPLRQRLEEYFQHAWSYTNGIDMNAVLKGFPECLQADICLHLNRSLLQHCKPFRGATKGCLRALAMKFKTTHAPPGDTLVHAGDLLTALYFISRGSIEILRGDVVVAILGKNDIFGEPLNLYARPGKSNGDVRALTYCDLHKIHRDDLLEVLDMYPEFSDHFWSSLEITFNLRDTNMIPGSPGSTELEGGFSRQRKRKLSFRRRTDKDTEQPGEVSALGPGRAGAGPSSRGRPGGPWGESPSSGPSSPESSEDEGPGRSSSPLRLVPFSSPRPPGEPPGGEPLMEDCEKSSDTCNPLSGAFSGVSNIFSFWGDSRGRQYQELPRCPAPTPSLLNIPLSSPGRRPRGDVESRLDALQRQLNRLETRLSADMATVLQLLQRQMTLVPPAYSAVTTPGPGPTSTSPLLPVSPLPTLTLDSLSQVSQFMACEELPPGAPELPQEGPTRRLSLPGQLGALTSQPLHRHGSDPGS

| SMILES | IC50 [1] [nM] | IC50 [2] [nM] | logD [3] | IC50 [4] [nM] | hepatocyte CLint [11] [µL/min/1e6 cells] | Emax [10] [%] | also measured |
| --- | --- | --- | --- | --- | --- | --- | --- |
| CCS(=O)(=O)c1ccc(CC(=O)Nc2cc(-c3cccc(Cl)c3)cs2)cc1 | – | – | > 4.1 | – | – | – | – |
| CCS(=O)(=O)c1ccc(CC(=O)Nc2cc(-c3cc(C#N)cnc3OC)cs2)cc1 | 40 | > 3300 | 3.5 | 30 | – | – | permeability ([5]; Caco-2): 2.6 ×10⁻⁶ cm/s; fraction unbound [6]: 0.0009; recovery [7]: 44%; permeability ([9]; Caco-2): 17.1 ×10⁻⁶ cm/s |
| CCS(=O)(=O)c1ccc(CC(=O)Nc2cc(-c3cccnc3OC)cs2)cc1 | 110 | – | 3.6 | 410 | 13 | – | – |
| CCS(=O)(=O)c1ccc(CC(=O)Nc2cc(-c3cccnc3OCCc3ccccc3)cs2)cc1 | – | – | ≥ 4 | 29 | 125 | 70 | – |
| CCS(=N)(=O)c1ccc(CC(=O)Nc2cc(-c3cc(C#N)ccc3OC)cs2)cc1 (stereo not drawn) | 120 | – | 2.8 | 340 | – | – | – |
| CCS(=O)(=O)c1ccc(CC(=O)Nc2cc(-c3cc(Cl)cc(C#N)c3)cs2)cc1 | 90 | – | > 4 | 50 | – | – | – |
| CCS(=O)(=O)c1ccc(CC(=O)Nc2cc(-c3cncnc3OC)cs2)cc1 | 700 | – | 2.8 | 1850 | – | – | – |
| CCS(=O)(=O)c1ccc(CC(=O)Nc2cc(-c3cccnc3Oc3ccccc3)cs2)cc1 | – | – | ≥ 4 | 46 | 196 | 50 | – |
| CCS(=O)(=O)c1ccc(C(NC(C)=O)C(=O)Nc2cc(-c3cc(C#N)cc(F)c3OC)cs2)cc1 (stereo not drawn) | – | – | 3.3 | – | – | – | Papp A→B [5]: 0.3 ×10⁻⁶ cm/s; bioavailability [12]: 18%; solubility (physchem): 200 µM (≈ 103 µg/mL); Vd [16]: 0.34 L/kg; Fa [17]: 19%; Papp B→A [9]: 18 ×10⁻⁶ cm/s |
| CCS(=O)(=O)c1ccc(C(NC(C)=O)C(=O)Nc2cc(-c3cccnc3Oc3ccc(C#N)cc3)cs2)cc1 (stereo not drawn) | 55 | 640 | 3.4 | 66 | 10.4 | – | – |
| CC[S+]([O-])c1ccc(CC(=O)Nc2cc(-c3cc(C#N)cnc3OC)cs2)cc1 (stereo not drawn) | 440 | – | 3.4 | 1290 | – | – | – |
| CCS(=O)(=O)c1ccc(CC(=O)Nc2cc(-c3ccc(C#N)cc3Cl)cs2)cc1 | 780 | – | 3.7 | 1160 | – | – | – |
| CCOc1ncccc1-c1csc(NC(=O)Cc2ccc(S(=O)(=O)CC)cc2)c1 | 80 | – | ≥ 4 | 150 | 28 | – | – |
| CCS(=O)(=O)c1ccc(C(N)C(=O)Nc2cc(-c3cc(C#N)cc(F)c3OC)cs2)cc1 (stereo not drawn) | 452 | 1690 | 3.2 | 75 | 11 | – | – |
| CCS(=O)(=O)N1CCC(CC(=O)Nc2cc(-c3cc(C#N)cnc3OC)cs2)CC1 | 3250 | – | 3.2 | 3250 | – | – | – |
| CNS(=O)(=O)c1ccc(CC(=O)Nc2cc(-c3cc(C#N)cnc3OC)cs2)cc1 | 40 | > 3300 | 3.5 | 70 | – | – | Papp A→B [5]: 0.65 ×10⁻⁶ cm/s; fraction unbound [6]: < 0.001; recovery [7]: 55%; efflux ratio [8]: 40; solubility (physchem): 0.34 µM (≈ 0.15 µg/mL); Papp B→A [9]: 26 ×10⁻⁶ cm/s |
| CCS(=O)(=O)c1ccc(CC(=O)Nc2cc(-c3cc(C#N)ccc3OC)cs2)cc1 | 30 | > 3300 | 3.6 | 20 | – | – | Papp A→B [5]: 1.6 ×10⁻⁶ cm/s; fraction unbound [6]: 0.001; recovery [7]: 41%; efflux ratio [8]: 7.6; solubility (physchem): 0.43 µM (≈ 0.189 µg/mL); Papp B→A [9]: 12 ×10⁻⁶ cm/s |
| CCS(=O)(=O)c1ccc(CC(=O)Nc2cc(-c3cccnc3Oc3ccc(C#N)cc3)cs2)cc1 | – | 190 | 3.6 | 88 | 28 | – | – |
| CCCOc1ncccc1-c1csc(NC(=O)Cc2ccc(S(=O)(=O)CC)cc2)c1 | – | – | ≥ 4 | 59 | 80 | 40 | – |
| CCS(=O)(=O)c1ccc(CC(=O)Nc2cc(-c3cc(C#N)ccc3Cl)cs2)cc1 | 60 | – | 3.8 | 50 | – | – | – |
| CCS(=O)(=O)c1ccc(CC(=O)Nc2cc(-c3cccnc3OCc3ccccc3)cs2)cc1 | – | – | > 4 | 20 | 128 | 30 | fraction unbound [6]: 0.0003; solubility (physchem): 0.42 µM (≈ 0.207 µg/mL); selectivity ratio [15]: < 10 |

The remaining molecules from weak to strong by IC50 [4], led by results:

| IC50 [1] [nM] | IC50 [2] [nM] | logD [3] | IC50 [4] [nM] | hepatocyte CLint [11] [µL/min/1e6 cells] | SMILES | Emax [10] [%] | also measured |
| --- | --- | --- | --- | --- | --- | --- | --- |
| 30 | 700 | 3.9 | 20 | 11.3 | CCS(=O)(=O)c1ccc(CC(=O)Nc2cc(-c3cc(C#N)cc(F)c3OC)cs2)cc1 | 60 | Papp A→B [5]: 1.8 ×10⁻⁶ cm/s; fraction unbound [6]: 0.0017 to 0.002; bioavailability [12]: 85%; inhibition at 11 µM (hERG (KCNH2)): 43%; recovery [7]: 41%; hepatocyte CLint [13]: 5.6 µL/min/1e6 cells; efflux ratio [8]: 3.9; solubility (physchem): 0.4 to 0.6 µM (≈ 0.183 to 0.275 µg/mL); clearance [14]: 5.5 mL/min/kg; selectivity ratio [15]: < 10; Vd [16]: 0.48 L/kg; Fa [17]: 92%; Papp B→A [9]: 7.1 ×10⁻⁶ cm/s; half-life [18]: 1.2 h |
| – | – | ≥ 4 | 19 | 281 | CCS(=O)(=O)c1ccc(CC(=O)Nc2cc(-c3cccnc3OCc3cccc(C#N)c3)cs2)cc1 | 50 | – |
| 50 | 100 | – | 18 | 17 | CCS(=O)(=O)c1ccc(CC(=O)Nc2cc(-c3cccnc3OCC(F)(F)F)cs2)cc1 | – | – |
| – | > 3300 | ≥ 4 | 17 | 104 | CCS(=O)(=O)c1ccc(CC(=O)Nc2cc(-c3cccnc3OCCCc3ccccc3)cs2)cc1 | 30 | – |
| 21 | 35 | ≥ 4 | 14 | > 300 | CCS(=O)(=O)c1ccc(CC(=O)Nc2cc(-c3cccnc3OCc3ccc(C(=O)OC)cc3)cs2)cc1 | – | selectivity ratio [15]: 100 |
| 67 | 990 | 3.3 | 14 | 4 | CCS(=O)(=O)c1ccc(C(NC(C)=O)C(=O)Nc2cc(-c3cc(C#N)cnc3OC)cs2)cc1 (stereo not drawn) | – | – |
| 29 | 25 | ≥ 4 | 11 | 45 | CCS(=O)(=O)c1ccc(CC(=O)Nc2cc(-c3cccnc3OC/C=C/c3ccccc3)cs2)cc1 | 40 | selectivity ratio [15]: 100 |
| 30 | 100 | ≥ 4 | 10 | 286 | CCS(=O)(=O)c1ccc(CC(=O)Nc2cc(-c3cccnc3OCc3ccc(C#N)cc3)cs2)cc1 | 50 | – |
| 22 | 180 | > 4.2 | 9 | – | CCS(=O)(=O)c1ccc(CC(=O)Nc2nc(-c3cccc(Cl)c3)c(C(=O)c3ccccc3Cl)s2)cc1 | – | – |
| – | – | > 4 | 7 | 24 | CCS(=O)(=O)c1ccc(C(NC(C)=O)C(=O)Nc2cc(-c3cccnc3OCc3ccccc3)cs2)cc1 (stereo not drawn) | – | – |
| 75 | 32 | 4.6 | 6 | 9.1 | CCS(=O)(=O)c1ccc(C(NC(C)=O)C(=O)Nc2cc(-c3cccnc3OCc3ccc(OC(F)(F)F)cc3)cs2)cc1 (stereo not drawn) | – | – |
| 23 | 6 | 4.5 | 2 | – | CCS(=O)(=O)c1ccc(CC(=O)Nc2cc(-c3cccc(Cl)c3)c(C(=O)c3ccccc3Cl)s2)cc1 | 40 | Papp A→B [5]: < 0.001 ×10⁻⁶ cm/s; fraction unbound [6]: < 0.002; recovery [7]: 52%; efflux ratio [8]: > 324; solubility (physchem): < 0.1 µM; Papp B→A [9]: 0.6 ×10⁻⁶ cm/s |
